Columns and labels:
solubility of the salts = format: physicochemical
[1] = tested on: pigs sensitized to haloperidol; assay: dystonia in pigs sensitized to haloperidol; format: in vivo
[2] = biological target: dopamine (DA) D1 receptors (Homo sapiens, UniProt P21728); conditions: as described in PCT/DK04/000546; cited from earlier work
DA D2 receptors = DA D2 receptors (Homo sapiens, UniProt P14416); conditions: as described in PCT/DK04/000546; cited from earlier work
alfal adrenoceptors = conditions: as described in PCT/DK04/000546; cited from earlier work
dopamine D1 receptors = dopamine D1 receptors (Homo sapiens, UniProt P21728); conditions: as described in PCT/DK04/000546; cited from earlier work
dopamine D2 receptors = dopamine D2 receptors (Homo sapiens, UniProt P14416); conditions: as described in PCT/DK04/000546; cited from earlier work
[3] = biological target: serotonin 5-HT2a receptors (Homo sapiens, UniProt P28223); conditions: as described in PCT/DK04/000546; cited from earlier work
CYP2D6 = CYP2D6 (Homo sapiens, UniProt P10635); conditions: as described in PCT/DK04/000546; cited from earlier work
[4] = rabbit model; as described in PCT/DK04/000546; cited from earlier work

DA D2 receptors, sequence (P14416 whole entry): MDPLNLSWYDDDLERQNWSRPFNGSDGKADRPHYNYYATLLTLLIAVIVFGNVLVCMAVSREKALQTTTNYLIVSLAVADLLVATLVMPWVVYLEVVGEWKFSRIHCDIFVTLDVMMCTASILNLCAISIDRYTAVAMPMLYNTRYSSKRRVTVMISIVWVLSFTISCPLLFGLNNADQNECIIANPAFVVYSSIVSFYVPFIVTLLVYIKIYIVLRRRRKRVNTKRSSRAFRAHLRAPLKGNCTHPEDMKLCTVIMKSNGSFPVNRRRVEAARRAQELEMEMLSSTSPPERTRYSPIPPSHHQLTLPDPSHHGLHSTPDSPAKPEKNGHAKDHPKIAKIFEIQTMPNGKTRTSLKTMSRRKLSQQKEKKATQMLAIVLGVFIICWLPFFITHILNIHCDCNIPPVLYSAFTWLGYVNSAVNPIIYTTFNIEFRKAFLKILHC
dopamine D2 receptors, sequence (P14416 whole entry): as above
dopamine (DA) D1 receptors, sequence (P21728 whole entry): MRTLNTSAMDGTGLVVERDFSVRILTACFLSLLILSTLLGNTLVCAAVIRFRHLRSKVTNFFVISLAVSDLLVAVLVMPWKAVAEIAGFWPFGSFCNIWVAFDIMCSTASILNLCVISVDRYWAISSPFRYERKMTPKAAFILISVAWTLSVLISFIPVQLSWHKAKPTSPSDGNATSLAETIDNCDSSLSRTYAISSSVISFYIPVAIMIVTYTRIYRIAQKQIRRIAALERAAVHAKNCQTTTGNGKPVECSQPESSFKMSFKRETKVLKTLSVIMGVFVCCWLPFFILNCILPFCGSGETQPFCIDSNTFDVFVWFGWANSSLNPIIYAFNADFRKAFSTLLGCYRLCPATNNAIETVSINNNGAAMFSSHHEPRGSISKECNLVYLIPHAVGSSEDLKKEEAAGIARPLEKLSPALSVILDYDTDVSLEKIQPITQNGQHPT
dopamine D1 receptors, sequence (P21728 whole entry): as above
CYP2D6, sequence (P10635 whole entry): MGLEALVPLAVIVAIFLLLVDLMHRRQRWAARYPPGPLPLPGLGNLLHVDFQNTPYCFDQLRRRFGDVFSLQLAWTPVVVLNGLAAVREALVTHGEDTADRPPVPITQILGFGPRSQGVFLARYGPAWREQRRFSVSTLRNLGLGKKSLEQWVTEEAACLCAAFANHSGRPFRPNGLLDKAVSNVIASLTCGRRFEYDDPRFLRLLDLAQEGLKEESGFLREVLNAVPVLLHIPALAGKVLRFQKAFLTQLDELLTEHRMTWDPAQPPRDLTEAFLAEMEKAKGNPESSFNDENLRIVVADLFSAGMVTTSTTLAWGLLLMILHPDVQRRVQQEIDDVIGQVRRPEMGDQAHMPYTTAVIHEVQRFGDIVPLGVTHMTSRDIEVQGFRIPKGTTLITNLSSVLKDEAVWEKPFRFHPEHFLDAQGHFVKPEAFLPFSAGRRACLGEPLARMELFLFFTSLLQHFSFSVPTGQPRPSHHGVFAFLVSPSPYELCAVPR
serotonin 5-HT2a receptors, sequence (P28223 whole entry): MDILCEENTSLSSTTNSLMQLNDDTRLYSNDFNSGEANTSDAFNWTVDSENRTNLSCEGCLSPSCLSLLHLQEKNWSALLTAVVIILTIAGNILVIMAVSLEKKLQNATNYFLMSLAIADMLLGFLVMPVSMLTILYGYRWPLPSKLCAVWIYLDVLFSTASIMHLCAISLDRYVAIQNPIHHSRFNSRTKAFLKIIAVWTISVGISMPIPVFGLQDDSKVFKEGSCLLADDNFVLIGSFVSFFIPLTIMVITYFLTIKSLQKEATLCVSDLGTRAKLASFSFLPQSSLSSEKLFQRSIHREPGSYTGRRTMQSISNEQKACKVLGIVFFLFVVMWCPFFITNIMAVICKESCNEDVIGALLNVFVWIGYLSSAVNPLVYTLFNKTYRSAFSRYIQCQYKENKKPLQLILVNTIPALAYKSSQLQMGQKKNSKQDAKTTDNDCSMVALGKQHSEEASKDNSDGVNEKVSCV

Structure (SMILES)	solubility (solubility of the salts)	induction of dystonia (EPS liability) [1]	affinity for dopamine (DA) D1 receptors [2]	affinity for DA D2 receptors (DA D2 receptors)	affinity for alfal adrenoceptors (alfal adrenoceptors)	functional activity at dopamine D1 receptors (dopamine D1 receptors)	functional activity at dopamine D2 receptors (dopamine D2 receptors)	functional activity at serotonin 5-HT2a receptors [3]	inhibition of CYP2D6 (CYP2D6)	effect on the QT interval [4]
CC1(C)CN([C@@H]2C[C@@H](c3ccccc3)c3ccc(Cl)cc32)CCN1.CC1(C)CN([C@@H]2C[C@@H](c3ccccc3)c3ccc(Cl)cc32)CCN1.O=C(O)C[C@H](O)C(=O)O (relative stereo) [malate salt, trans-1-((1R,3S)-6-chloro-3-phenylindan-1-yl)-3,3-dimethylpiperazinium L-malate]	0.8 mg/mL	–	–	–	–	–	–	–	–	–
CC1(C)CN([C@@H]2C[C@@H](c3ccccc3)c3ccc(Cl)cc32)CCN1 [Compound I, trans-1-((1R,3S)-6-chloro-3-phenylindan-1-yl)-3,3-dimethylpiperazine]	–	did not induce dystonia	high affinity	high affinity	high affinity	antagonist	antagonist	antagonist	relatively weak inhibitor	relatively low effect

— US20080269248A1, “Tartrate and Malate Salts of Trans-1-((1R,3S)-6-Chloro-3-Phenylindan-1-Yl)-3,3-Dimethylpiperazine” (H. Lundbeck A/S, priority 2005, published 2008)
